These results are taken from patent publication EP0409227A2, “Pyrimidine nucleosides, their preparation and pharmaceutical preparations” (MATTHES, Eckart, Dr., priority 1989, dated 1991).

One series concerns HBsAg-Sekretion von Hep G2 (2.2.15)-Zellen. Kind of series: Inhibition of HBsAg secretion of Hep G2 (2.2.15) cells (solid-phase radioimmunoassay of the medium). It is filed as cell-based, HBV. As to conditions: nucleoside 0,01 µM; 4 days + 24 h; mean ± SD of five experiments. Here is the method:
(§1) Die Testung der antiviralen Wirksamkeit der Nucleoside auf zelluärer Ebene erfolgte an einer menschlichen Hepatoblastom-Zellinie, die mit dem HBV-Genom tranfiziert wurde und sowohl das Oberflächenantigen des Virus (HBsAg) als auch die HBV-DNA permanent produziert und infektiöse Viruspartikel in das Medium abgibt (Hep G2-Zellen, Klon 2.2.15, Sells et al. Proc.Natl.Acad. Sci. 84, 1005 (1987)). Die Zellen (5x10⁵/ml) wurden in RPMI 1640-Medium mit 2 mM Glutamin und 10% fetalem Kälberserum allein oder zusammen mit den Nucleosid-Analoga für 4 Tage inkubiert, danach wurden den Ansätzen für 24 Stunden ³H-Thymidin bzw. ³H-Desoxyadenosin (3 µCi/ml) zugesetzt, die Zellen abzentrifugiert und darin die säureunlösliche Radioaktivität und damit der Einfluß auf die DNA-Synthese bestimmt. Im Inkubationsmedium wurde das HBsAg durch Festphasenradioimmunoassay (Travenol-Genentech Diagnostics, Cambridge, MA) entsprechend den Instruktionen des Herstellers ermittelt. Die Tabelle 4 faßt die Ergebnisse zusammen, die belegen, daß die getesteten Verbindungen hochwirksame und selektive Hemmstoffe der HBV-Vermehrung sind.
`Cc1cn([C@@H]2O[C@H](CO)[C@@H](O)[C@@H]2O)c(=O)nc1N` [Arabinosyl-5-methyl-cytosin, 1-β-D-Arabinofuranosyl-5-methylcytosin]: the HBsAg was 12,4 ± 1,2 ng/ml.
The same measure, in the same setting: next, `CCc1cn([C@H]2C[C@H](F)[C@@H](CO)O2)c(=O)nc1N` [2',3'-Didesoxy-3'-fluor-5-ethylcytidin]: 8,2 ± 0,8 ng/ml.

The series is the same for the next values; noted with them: nucleoside 0,1 µM; 4 days + 24 h; mean ± SD of five experiments.
Consider `Cc1cn([C@@H]2O[C@H](CO)[C@@H](O)[C@@H]2O)c(=O)nc1N` [Arabinosyl-5-methyl-cytosin, 1-β-D-Arabinofuranosyl-5-methylcytosin], for which the HBsAg was 3,6 ± 0,5 ng/ml.
As to `CCc1cn([C@H]2C[C@H](F)[C@@H](CO)O2)c(=O)nc1N` [2',3'-Didesoxy-3'-fluor-5-ethylcytidin], the HBsAg is on record as 0,6 ± 0,1 ng/ml.

The same series, now with this note: nucleoside 0,01 µM; % of control without nucleoside (100).
As to `Cc1cn([C@@H]2O[C@H](CO)[C@@H](O)[C@@H]2O)c(=O)nc1N` [Arabinosyl-5-methyl-cytosin, 1-β-D-Arabinofuranosyl-5-methylcytosin], the HBsAg is listed as 71%.
Still for that read-out and setting: with `CCc1cn([C@H]2C[C@H](F)[C@@H](CO)O2)c(=O)nc1N` [2',3'-Didesoxy-3'-fluor-5-ethylcytidin] the figure was 42%.

The same series, now with this note: nucleoside 0,1 µM; % of control without nucleoside (100).
Consider `Cc1cn([C@@H]2O[C@H](CO)[C@@H](O)[C@@H]2O)c(=O)nc1N` [Arabinosyl-5-methyl-cytosin, 1-β-D-Arabinofuranosyl-5-methylcytosin], for which the HBsAg amounted to 21%.
On the same count and under the same terms, with `CCc1cn([C@H]2C[C@H](F)[C@@H](CO)O2)c(=O)nc1N` [2',3'-Didesoxy-3'-fluor-5-ethylcytidin] the figure was 3%.

The same series, now with this note: nucleoside 0,03 µM; 4 days + 24 h; mean ± SD of five experiments.
On to `Cc1cn([C@@H]2O[C@H](CO)[C@@H](O)[C@@H]2O)c(=O)nc1N` [Arabinosyl-5-methyl-cytosin, 1-β-D-Arabinofuranosyl-5-methylcytosin], for which the HBsAg is reported as 10,3 ± 1,2 ng/ml.
Regarding `CCc1cn([C@H]2C[C@H](F)[C@@H](CO)O2)c(=O)nc1N` [2',3'-Didesoxy-3'-fluor-5-ethylcytidin], the HBsAg is 2,6 ± 0,6 ng/ml.

Staying with this series, now noted: nucleoside 0,3 µM; 4 days + 24 h; mean ± SD of five experiments.
Take `Cc1cn([C@@H]2O[C@H](CO)[C@@H](O)[C@@H]2O)c(=O)nc1N` [Arabinosyl-5-methyl-cytosin, 1-β-D-Arabinofuranosyl-5-methylcytosin]: the HBsAg is reported as 0,6 ± 0,3 ng/ml.
Same read-out and setting: with `CCc1cn([C@H]2C[C@H](F)[C@@H](CO)O2)c(=O)nc1N` [2',3'-Didesoxy-3'-fluor-5-ethylcytidin] the figure was < 0,1 ng/ml.

The same series, now with this note: nucleoside 0,03 µM; % of control without nucleoside (100).
In turn, `Cc1cn([C@@H]2O[C@H](CO)[C@@H](O)[C@@H]2O)c(=O)nc1N` [Arabinosyl-5-methyl-cytosin, 1-β-D-Arabinofuranosyl-5-methylcytosin] yielded an HBsAg of 59%.
On to `CCc1cn([C@H]2C[C@H](F)[C@@H](CO)O2)c(=O)nc1N` [2',3'-Didesoxy-3'-fluor-5-ethylcytidin], for which the HBsAg came to 13%.

Staying with this series, now noted: nucleoside 0,3 µM; % of control without nucleoside (100).
Consider `Cc1cn([C@@H]2O[C@H](CO)[C@@H](O)[C@@H]2O)c(=O)nc1N` [Arabinosyl-5-methyl-cytosin, 1-β-D-Arabinofuranosyl-5-methylcytosin], for which the HBsAg was determined as 3%.
Still for that read-out and setting: next, `CCc1cn([C@H]2C[C@H](F)[C@@H](CO)O2)c(=O)nc1N` [2',3'-Didesoxy-3'-fluor-5-ethylcytidin]: below 1%.

The series is the same for the next values; noted with them: nucleoside 0,003 µM; 4 days + 24 h; mean ± SD of five experiments.
`Cc1cn([C@@H]2O[C@H](CO)[C@@H](O)[C@@H]2O)c(=O)nc1N` [Arabinosyl-5-methyl-cytosin, 1-β-D-Arabinofuranosyl-5-methylcytosin]: the HBsAg is 16,8 ± 1,7 ng/ml.
Same read-out and setting: next, `CCc1cn([C@H]2C[C@H](F)[C@@H](CO)O2)c(=O)nc1N` [2',3'-Didesoxy-3'-fluor-5-ethylcytidin]: 16,7 ± 2,6 ng/ml.

Still in this series, the particulars now being: nucleoside 0,003 µM; % of control without nucleoside (100).
As for `Cc1cn([C@@H]2O[C@H](CO)[C@@H](O)[C@@H]2O)c(=O)nc1N` [Arabinosyl-5-methyl-cytosin, 1-β-D-Arabinofuranosyl-5-methylcytosin], the HBsAg is recorded as 96%.
The same measure, in the same setting: with `CCc1cn([C@H]2C[C@H](F)[C@@H](CO)O2)c(=O)nc1N` [2',3'-Didesoxy-3'-fluor-5-ethylcytidin] the figure was 87%.

Still in this series, the particulars now being: nucleoside 1,0 µM; 4 days + 24 h; mean ± SD of five experiments.
In the case of `Cc1cn([C@@H]2O[C@H](CO)[C@@H](O)[C@@H]2O)c(=O)nc1N` [Arabinosyl-5-methyl-cytosin, 1-β-D-Arabinofuranosyl-5-methylcytosin], the HBsAg is recorded as < 0,1 ng/ml.
For the compound `CCc1cn([C@H]2C[C@H](F)[C@@H](CO)O2)c(=O)nc1N` [2',3'-Didesoxy-3'-fluor-5-ethylcytidin], the HBsAg was < 0,1 ng/ml.

The same series, now with this note: nucleoside 1,0 µM; % of control without nucleoside (100).
`Cc1cn([C@@H]2O[C@H](CO)[C@@H](O)[C@@H]2O)c(=O)nc1N` [Arabinosyl-5-methyl-cytosin, 1-β-D-Arabinofuranosyl-5-methylcytosin]: the HBsAg is on record as below 1%.
The same measure, in the same setting: with `CCc1cn([C@H]2C[C@H](F)[C@@H](CO)O2)c(=O)nc1N` [2',3'-Didesoxy-3'-fluor-5-ethylcytidin] the figure was below 1%.

The same series, now with this note: nucleoside 3,0 µM; 4 days + 24 h; mean ± SD of five experiments.
For the compound `Cc1cn([C@@H]2O[C@H](CO)[C@@H](O)[C@@H]2O)c(=O)nc1N` [Arabinosyl-5-methyl-cytosin, 1-β-D-Arabinofuranosyl-5-methylcytosin], the HBsAg is listed as < 0,1 ng/ml.
Same read-out and setting: next, `CCc1cn([C@H]2C[C@H](F)[C@@H](CO)O2)c(=O)nc1N` [2',3'-Didesoxy-3'-fluor-5-ethylcytidin]: < 0,1 ng/ml.

Still in this series, the particulars now being: nucleoside 3,0 µM; % of control without nucleoside (100).
For `Cc1cn([C@@H]2O[C@H](CO)[C@@H](O)[C@@H]2O)c(=O)nc1N` [Arabinosyl-5-methyl-cytosin, 1-β-D-Arabinofuranosyl-5-methylcytosin], the HBsAg is listed as below 1%.
Same read-out and setting: with `CCc1cn([C@H]2C[C@H](F)[C@@H](CO)O2)c(=O)nc1N` [2',3'-Didesoxy-3'-fluor-5-ethylcytidin] the figure was below 1%.

For the next series, the system named is Hep G2 (2.2.15)-Zellen. Briefly: DNA synthesis of Hep G2 (2.2.15) cells (acid-insoluble radioactivity after 3H-thymidine or 3H-deoxyadenosine). Type of series: cell-based, menschlichen. Conditions: nucleoside 0,01 µM; 4 days, then 24 h label; mean ± SD of five experiments. As for the experimental part: as §1
On to `Cc1cn([C@@H]2O[C@H](CO)[C@@H](O)[C@@H]2O)c(=O)nc1N` [Arabinosyl-5-methyl-cytosin, 1-β-D-Arabinofuranosyl-5-methylcytosin], for which the “^3H-DNA” value amounted to 17990 ± 1635 dpm/Kultur.
Same read-out and setting: with `CCc1cn([C@H]2C[C@H](F)[C@@H](CO)O2)c(=O)nc1N` [2',3'-Didesoxy-3'-fluor-5-ethylcytidin] the figure was 13855 ± 1945 dpm/Kultur.

Staying with this series, now noted: nucleoside 0,1 µM; 4 days, then 24 h label; mean ± SD of five experiments.
In the case of `Cc1cn([C@@H]2O[C@H](CO)[C@@H](O)[C@@H]2O)c(=O)nc1N` [Arabinosyl-5-methyl-cytosin, 1-β-D-Arabinofuranosyl-5-methylcytosin], the “^3H-DNA” value is 16225 ± 1825 dpm/Kultur.
Still for that read-out and setting: next, `CCc1cn([C@H]2C[C@H](F)[C@@H](CO)O2)c(=O)nc1N` [2',3'-Didesoxy-3'-fluor-5-ethylcytidin]: 15245 ± 1655 dpm/Kultur.

Staying with this series, now noted: nucleoside 0,03 µM; 4 days, then 24 h label; mean ± SD of five experiments.
For the compound `Cc1cn([C@@H]2O[C@H](CO)[C@@H](O)[C@@H]2O)c(=O)nc1N` [Arabinosyl-5-methyl-cytosin, 1-β-D-Arabinofuranosyl-5-methylcytosin], the “^3H-DNA” value was 19075 ± 1905 dpm/Kultur.
Still for that read-out and setting: with `CCc1cn([C@H]2C[C@H](F)[C@@H](CO)O2)c(=O)nc1N` [2',3'-Didesoxy-3'-fluor-5-ethylcytidin] the figure was 14570 ± 1695 dpm/Kultur.

The same series, now with this note: nucleoside 0,3 µM; 4 days, then 24 h label; mean ± SD of five experiments.
Turning to `Cc1cn([C@@H]2O[C@H](CO)[C@@H](O)[C@@H]2O)c(=O)nc1N` [Arabinosyl-5-methyl-cytosin, 1-β-D-Arabinofuranosyl-5-methylcytosin], the “^3H-DNA” value stood at 18600 ± 1865 dpm/Kultur.
As to `CCc1cn([C@H]2C[C@H](F)[C@@H](CO)O2)c(=O)nc1N` [2',3'-Didesoxy-3'-fluor-5-ethylcytidin], the “^3H-DNA” value is 14130 ± 1940 dpm/Kultur.

Still in this series, the particulars now being: nucleoside 0,003 µM; 4 days, then 24 h label; mean ± SD of five experiments.
`Cc1cn([C@@H]2O[C@H](CO)[C@@H](O)[C@@H]2O)c(=O)nc1N` [Arabinosyl-5-methyl-cytosin, 1-β-D-Arabinofuranosyl-5-methylcytosin]: the “^3H-DNA” value stood at 17755 ± 1750 dpm/Kultur.
Same read-out and setting: with `CCc1cn([C@H]2C[C@H](F)[C@@H](CO)O2)c(=O)nc1N` [2',3'-Didesoxy-3'-fluor-5-ethylcytidin] the figure was 14020 ± 1780 dpm/Kultur.

The same series, now with this note: nucleoside 1,0 µM; 4 days, then 24 h label; mean ± SD of five experiments.
On to `Cc1cn([C@@H]2O[C@H](CO)[C@@H](O)[C@@H]2O)c(=O)nc1N` [Arabinosyl-5-methyl-cytosin, 1-β-D-Arabinofuranosyl-5-methylcytosin], for which the “^3H-DNA” value was found to be 12415 ± 1070 dpm/Kultur.
Same read-out and setting: next, `CCc1cn([C@H]2C[C@H](F)[C@@H](CO)O2)c(=O)nc1N` [2',3'-Didesoxy-3'-fluor-5-ethylcytidin]: 9850 ± 1230 dpm/Kultur.

The same series, now with this note: nucleoside 3,0 µM; 4 days, then 24 h label; mean ± SD of five experiments.
Consider `Cc1cn([C@@H]2O[C@H](CO)[C@@H](O)[C@@H]2O)c(=O)nc1N` [Arabinosyl-5-methyl-cytosin, 1-β-D-Arabinofuranosyl-5-methylcytosin], for which the “^3H-DNA” value amounted to 8470 ± 935 dpm/Kultur.
The same measure, in the same setting: next, `CCc1cn([C@H]2C[C@H](F)[C@@H](CO)O2)c(=O)nc1N` [2',3'-Didesoxy-3'-fluor-5-ethylcytidin]: 6640 ± 965 dpm/Kultur.
